Several values for one entry are separate records, joined by “and”; a condition that tells them apart may be missing. Equal entries are not always repeated. Toxic doses and inconclusive results are not listed. The calls were made as follows: active = survival T/C of 150% or more; inactive = T/C below 125% in these data.
Tested on: BDF1 mice, P388 leukemia ip, median survival T/C
Experiment: NCI In Vivo Anticancer Drug Screen. Data for tumor model P388 Leukemia (intraperitoneal) in B6D2F1 (BDF1) mice
Settings: endpoint: median survival time, higher = longer survival
How it was run: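 Reported as T/C, where T is the survival measurement in dosed animals and C the same measurement in vehicle controls.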

[1] = dose: 50.0 mg/kg/injection, schedule: Q01DX009 (ip), vehicle: saline
[2] = dose: 50.0 mg/kg/injection, schedule: Q04DX003 (ip), vehicle: saline
[3] = dose: 100.0 mg/kg/injection, schedule: Q01DX009 (ip), vehicle: saline
[4] = dose: 100.0 mg/kg/injection, schedule: Q04DX003 (ip), vehicle: saline with Tween-80
[5] = dose: 200.0 mg/kg/injection, schedule: Q04DX003 (ip), vehicle: saline with Tween-80
[6] = dose: 50.0 mg/kg/injection, schedule: Q01DX009 (ip), vehicle: saline with Tween-80
[7] = dose: 100.0 mg/kg/injection, schedule: Q01DX009 (ip), vehicle: saline with Tween-80
[8] = dose: 200.0 mg/kg/injection, schedule: Q01DX009 (ip), vehicle: saline with Tween-80

Measured: T/C

NC(CSCc1ccccc1)CSCc1ccccc1
inactive: dose: 0.78 mg/kg/injection, schedule: Q04DX003 (ip), vehicle: saline 99 % of control | dose: 1.56 mg/kg/injection, schedule: Q04DX003 (ip), vehicle: saline 86 % of control and 91 % of control | dose: 6.25 mg/kg/injection, schedule: Q01DX009 (ip), vehicle: saline 107 % of control | dose: 6.25 mg/kg/injection, schedule: Q04DX003 (ip), vehicle: saline 99 % of control and 104 % of control | dose: 12.5 mg/kg/injection, schedule: Q01DX009 (ip), vehicle: saline 109 % of control | dose: 12.5 mg/kg/injection, schedule: Q04DX003 (ip), vehicle: saline 94 % of control and 95 % of control and 100 % of control | dose: 25.0 mg/kg/injection, schedule: Q01DX009 (ip), vehicle: saline 118 % of control | dose: 25.0 mg/kg/injection, schedule: Q04DX003 (ip), vehicle: saline 99 % of control and 100 % of control and 120 % of control | [1] 109 % of control | [2] 104 % of control | [3] 109 % of control

NC(N)=Nc1ccc(C(=O)O)cc1
inactive: dose: 50.0 mg/kg/injection, schedule: Q04DX003 (ip), vehicle: saline with Tween-80 104 % of control | [4] 100 % of control | [5] 100 % of control

CCCN(CCC)CC(C)O (stereo not given)
inactive: [2] 109 % of control | dose: 100.0 mg/kg/injection, schedule: Q04DX003 (ip), vehicle: saline 100 % of control | dose: 200.0 mg/kg/injection, schedule: Q04DX003 (ip), vehicle: saline 95 % of control

CC1(C)O[C@]2(C)CC[C@@H]1[C@H]1O[C@@H]12
inactive: dose: 50.0 mg/kg/injection, schedule: Q01DX005 (ip), vehicle: saline 102 % of control | dose: 100.0 mg/kg/injection, schedule: Q01DX005 (ip), vehicle: saline 100 % of control | dose: 200.0 mg/kg/injection, schedule: Q01DX005 (ip), vehicle: saline 102 % of control

c1ccc2c(c1)nnn1c3cnccc3nc21
inactive: dose: 6.25 mg/kg/injection, schedule: Q01DX009 (ip), vehicle: saline with Tween-80 120 % of control

c1ccc2c(c1)cc1c3nncn3ncn21
inactive: [6] 90 % of control | [7] 114 % of control

O=C(c1ccccc1)C1CN(C2CCCC2)C1c1ccccc1 (stereo not given)
inactive: [6] 91 % of control | [7] 92 % of control | [8] 91 % of control

COC1CC(O)C(O)C(C)O1 (stereo not given)
inactive: [6] 97 % of control | [1] 100 % of control | [7] 95 % of control | [3] 107 % of control | [4] 106 % of control | [8] 100 % of control | dose: 200.0 mg/kg/injection, schedule: Q01DX009 (ip), vehicle: saline 118 % of control | [5] 101 % of control | dose: 400.0 mg/kg/injection, schedule: Q01DX009 (ip), vehicle: saline with Tween-80 95 % of control | dose: 400.0 mg/kg/injection, schedule: Q01DX009 (ip), vehicle: saline 99 % of control | dose: 400.0 mg/kg/injection, schedule: Q04DX003 (ip), vehicle: saline with Tween-80 99 % of control

NOCc1cc2c(cc1Cl)OCO2
inactive: dose: 100.0 mg/kg/injection, schedule: Q04DX003 (ip), vehicle: Klucel (hydroxypropylcellulose) (HPC) 95 % of control | dose: 200.0 mg/kg/injection, schedule: Q04DX003 (ip), vehicle: Klucel (hydroxypropylcellulose) (HPC) 100 % of control | dose: 400.0 mg/kg/injection, schedule: Q04DX003 (ip), vehicle: Klucel (hydroxypropylcellulose) (HPC) 113 % of control
